A word on the IC50: it is the point on the concentration scale where inhibition reaches its midpoint.

The target of this experiment is T1, hP2X7R (Homo sapiens, UniProt Q99572).
T1 construct: expressed in transfected cells; host or cells: Xenopus laevis oocytes (cRNA injection)
T1 sequence (Q99572 1-595): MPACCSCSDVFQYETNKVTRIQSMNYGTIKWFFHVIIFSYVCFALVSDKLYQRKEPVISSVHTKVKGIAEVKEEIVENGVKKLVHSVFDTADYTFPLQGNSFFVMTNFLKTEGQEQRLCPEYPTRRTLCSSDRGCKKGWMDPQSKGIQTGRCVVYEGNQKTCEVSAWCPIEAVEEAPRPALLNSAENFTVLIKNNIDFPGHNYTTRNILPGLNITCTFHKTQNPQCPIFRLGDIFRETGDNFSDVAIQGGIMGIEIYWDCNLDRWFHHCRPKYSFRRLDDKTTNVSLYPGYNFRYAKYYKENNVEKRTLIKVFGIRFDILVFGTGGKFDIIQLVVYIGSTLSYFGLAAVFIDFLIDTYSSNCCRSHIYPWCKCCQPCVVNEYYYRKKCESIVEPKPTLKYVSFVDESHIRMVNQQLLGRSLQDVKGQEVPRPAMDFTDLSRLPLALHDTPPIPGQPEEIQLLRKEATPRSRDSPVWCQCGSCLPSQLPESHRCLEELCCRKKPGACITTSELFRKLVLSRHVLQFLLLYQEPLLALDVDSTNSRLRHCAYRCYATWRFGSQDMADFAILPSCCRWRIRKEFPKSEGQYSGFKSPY
Put plainly: TEVC of ATP4--induced currents, hP2X7R in X. laevis oocytes (modified steady-state protocol). The format is cell-based. The conditions noted are these: for IC50: estimated from few tested concentrations. The procedure:
Ion currents mediated by P2X receptors were evoked by the indicated concentration of ATP or α,β-meATP and were recorded 1 or 2 days after cRNA injection at ambient temperature at a holding potential of −60 mV by two-electrode voltage clamp (TEVC) as previously described ([Hausmann et al., 2006]). Calcium-free ORi^− solution (90 mM NaCl, 1 mM KCl, 2 mM MgCl2, 10 mM HEPES, pH 7.4) was used to avoid bias due to calcium-activated chloride channels (CaCC) endogenously expressed in X. laevis oocytes ([Miledi, 1982]; [Methfessel et al., 1986]). For recordings of wt-hP2X7R, the composition of the ORi^− solution was modified according to protocols described previously and contained 100 mM NaCl, 2.5 mM KCl, 1 mM MgCl2, 5 mM HEPES, pH 7.4 ([Klapperstück et al., 2000]). The oocytes were continuously superfused with ORi^− by gravity flow (5–10 ml/min). The agonists ATP or α,β-meATP and the investigated NSAIDs were diluted in ORi^− on the day of the recording. The following agonist concentrations were used for the different P2X subtypes: 1 μM ATP (hP2X1R mutant, hP2X3R, rP2X3R, S^15V-hP2X3R, and S^15V-rP2X3R); 10 μM ATP (hP2X2R and hP2X4R); 300 μM free ATP^4- (hP2X7R); and 1 μM α,β-meATP (hP2X2/3R). A peak current protocol (Supplementary Figure S1) was used to analyze fast- and intermediate desensitizing P2XR subtypes (P2X1R, P2X3R, and S^15V-P2X3R), and a steady-state protocol (Supplementary Figure S2) was used for slowly or partially desensitizing P2X subtypes (P2X2R, P2X2/3R, and P2X4R). For recordings of P2X7R, a modified steady-state protocol was used ([Hausmann et al., 2006]). The application of different bath solutions was controlled by computer-operated magnetic valves controlled by the CellWorks E 5.5.1 software (npi electronic, Tamm, Germany).
In the case of hP2X7R, the control current in the absence of the antagonist had to be extrapolated (Supplementary Figure S4 and Supplementary Figure S5) presuming a linear increase in permeability during continuous ATP application ([North, 2002]) since the permeability of the receptor is affected by the antagonist.
For recordings of P2X7R, most scientists use divalent-free solutions such as ORi supplemented with 100 µM flufenamic acid (FFA) as an unselective ion channel blocker to inhibit non-specific chloride conductance in the absence of divalent ions ([Weber et al., 1995]; [Hülsmann et al., 2003]). However, since FFA is one of the investigated NSAIDs, this supplement was not reasonable. Therefore, the composition of the ORi-solution was modified as follows: 100 mM NaCl, 2.5 mM KCl, 1 mM MgCl2, 5 mM HEPES, pH 7.4, and according to former protocols ([Klapperstück et al., 2000]), a free ATP^4−concentration of 300 µM was adjusted.

`O=C(O)Cc1ccccc1Nc1c(Cl)cccc1Cl` [Diclofenac, diclofenac]: the “reduction of ATP4--induced current amplitude by 300 µM diclofenac” value (300 µM diclofenac, 300 µM free ATP4-) was “approximately 33%”. The IC50 (300 µM free ATP4-) is above 300 µM.
In the case of `O=C(O)c1ccccc1Nc1cccc(C(F)(F)F)c1` [Flufenamic acid, flufenamic acid], where the note is “300 µM free ATP4-”, the IC50 is around 900 µM. Besides, the “reversibility of the effect on hP2X7R-mediated current responses” value (slope of current before and after FFA application) is on record as “potentially irreversible”.
